From publication PMC12394552, “Multi-biological activity evaluation of Sn(П), Zn(П) and Fe(П) complexes based on thiocarbohydrazide schiff bases: synthesis, spectroscopic investigations and fluorescence studies” (Scientific Reports, 2025)
Values after ≈ are worked out from the molar mass of the structure shown. Where two headings read alike, the source gives them in different places.

Tests used:
[1] = tested on: Escherichia coli ATCC 8739; test: MIC determination, broth microdilution (EUCAST adapted); assay type: cell-based; conditions: ATCC8739, read-out: E. coli MIC value
Experimental: (§1) The compounds were tested against Gram-positive bacteria (Staphylococcus aureus ATCC 6538), Gram-negative bacteria (Escherichia coli ATCC 8739) and yeast (Candida albicansATCC10231). […] For bacterial strains, the EUCAST (2025) method was adapted. A few colonies of each bacterial culture previously grown on Mueller-Hinton agar for 24–48 h were suspended in normal saline and adjusted to 0.5 McFarland (1.5 × 10^8 CFU/mL). A 1/10 dilution was prepared in Mueller-Hinton broth (MHB) for the inoculation. In the wells of a 96-well flat-bottom microtiter plate, double serial dilutions of each compound were prepared in MHB. Each well was inoculated with the bacteria to achieve ca. 5 × 10^5 CFU/mL, and the plates were incubated at 37 °C overnight. Positive control (bacteria in culture medium only) and negative control (culture medium) were prepared. Each compound was tested in duplicate. After incubation, the plates were inspected visually for growth inhibition. To test the antimicrobial activity of DMSO, double serial dilutions of DMSO in broth medium were prepared and processed as the samples, but without the addition of the compounds. The antibacterial drug ciprofloxacin was used as a reference for comparison.
(§2) For Candida albicans, the same procedure applied to bacteria was used, except after inoculation, the plates were incubated at 35 °C for 24 h, and after incubation, the absorbance was measured at 530 nm using a plate reader. […] The absorbance of the wells was corrected by subtracting the absorbance of the blank. […] The antifungal drug fluconazole was used as a reference for comparison.

[2] = tested on: Staphylococcus aureus ATCC 6538; test: as above; assay type: cell-based; conditions: ATCC6538, read-out: S. aureus MIC value
Experimental: as §1, §2

[3] = tested on: Candida albicans ATCC10231; test: MIC determination, broth microdilution, absorbance 530 nm; assay type: cell-based; conditions: ATCC10231, 24 h, read-out: C. albicans MIC value at 50% inhibition
Experimental: as §1, §2

[4] = DPPH free radical scavenger assay; conditions: values given in µM; 1 h incubation, 517 nm; test range 6.25–200 µM; mean ± SD n = 4
Source text: This method depends on the reduction of the radicals, resulting in a color change from oxidized purple to reduced yellow. Principally, Diphenyl-2-picryl-hydrazyl (DPPH) undergoes reduction in methanol (MeOH) solution, in the presence of a hydrogen-donating compound, due to the formation of the non-radical form DPPH-H. This color change can be quantitatively measured using a 515–520 nm spectrophotometer. In contrast to other radical scavenging assays, a DPPH radical is stable and can provide reproducible spectroscopic values[41],[42]. A DPPH solution (0.2 mM) was diluted with MeOH and then mixed with treatment compounds as well as ascorbic acid in a concentration ratio of 1:1 using a 96-well plate (so that a final concentration range 6.25–200 µM was obtained for test agents); the treated solution was incubated one hour isolated from light. Finally, a change in absorbance at 517 nm wavelength was measured using a microplate reader (Bio-Tek Instrument, USA). Ascorbic acid was the robust and classical standard radical scavenging reference agent for comparison purposes[43],[44]. The calculation of the DPPH radical scavenging activity inhibition was determined by the following equation, where A represents photometric absorbance: in % = (A control – A sample) / A control x 100%)[45].

RAW 264.7 macrophages = test: SRB cytotoxicity on RAW 264.7 viability; assay type: cell-based; conditions: Mus musculus, RAW264.7, read-out: RAW 264.7 viability IC50 value
Experimental: (§3) All malignancy cell lines were cultured in high glucose DMEM (Bio Whittaker, Verviers, Belgium) containing 10% FBS, 4-(2-hydroxyethyl)-1-piperazineethanesulfonic acid (HEPES) Buffer (10 mM), L-glutamine (2 mM), gentamicin (50 µg/mL), penicillin (100 U/mL), and streptomycin sulfate ([…]) from Sigma (St. Luis, MO, USA) whereas Sulforhodamine B was from Santa Cruz Biotechnology (Inc. Texas, USA). Surviving cancer cell lines provide numerous advantages; they provide a pure and continuous supply of cells, thus overcoming any ethical barriers concerning human tissue usage, and are cost-effective. For cytotoxicity screening, adherent monolayers of all procured malignancies’ cell lines were examined. Periodontal ligament fibroblasts (PDL) were used to determine selective cytotoxicity.
RAW 264.7 mouse macrophage cell line (ATCC® TIB-71) were cultured in high glucose DMEM supplemented with 10% (FBS), penicillin (100 U/mL), streptomycin (100 µg/mL), and L-glutamate (100 µg/mL) in a 37 °C humidified atmosphere with 95% air and 5% CO2. Confluent macrophages (2 × 10^5/well) were incubated with inflammation-priming lipopolysaccharide (LPS; Sigma, St. Luis, MO, USA) with either indomethacin as the reference agent[39] or treatment compounds at different concentrations (1.563-200 µM). Griess reagent was mixed with aliquots of cell culture media and incubated at R.T. for 10 min. Absorbance at 550 nm was determined using a microplate reader (Spectro Scan 80D UV-VIS spectrophotometer (Sedico Ltd., Nicosia, Cyprus). The nitrite concentration was determined by comparison with a sodium nitrite standard curve. SRB cytotoxicity protocol was performed for evaluation of the effect of the studied test compounds on RAW 264.7 viability.

[5] = tested on: Periodontal ligament fibroblasts (PDL); test: SRB selective cytotoxicity in normal fibroblasts; assay type: cell-based
Experimental: as §3

A375 skin melanoma = test: SRB antiproliferative assay; assay type: cell-based; conditions: Homo sapiens, A-375, 72 h; read-out: Cytotoxicity (as of %Control) IC50 value, A375 skin melanoma
Experimental: as §3

[6] = tested on: CACO2 colorectal cancer cell line; test: SRB antiproliferative assay; assay type: cell-based
Experimental: as §3

[7] = tested on: HCT116 colorectal cancer cell line; test: SRB antiproliferative assay; assay type: cell-based
Experimental: as §3

[8] = tested on: HT29 colorectal cancer cell line; test: SRB antiproliferative assay; assay type: cell-based
Experimental: as §3

[9] = tested on: SW620 colorectal cancer cell line; test: SRB antiproliferative assay; assay type: cell-based
Experimental: as §3

U87 glioblastoma = test: SRB antiproliferative assay; assay type: cell-based; conditions: Homo sapiens, 72 h, read-out: Cytotoxicity (as of %Control) IC50 value, U87 Gliobalstoma
Experimental: as §3

A549 lung malignancy = test: SRB antiproliferative assay; assay type: cell-based, human; conditions: read-out: Cytotoxicity (as of %Control) IC50 value, A549 lung malignancy
Experimental: as §3

[10] = tested on: BT-549 invasive mammary malignancy; test: SRB antiproliferative assay; assay type: cell-based, human; conditions: read-out: Cytotoxicity (as of %control) IC50 value, BT-549 invasive mammary malignancy
Experimental: as §3

Hela cervix malignancy = test: SRB antiproliferative assay; assay type: cell-based, human
Experimental: as §3

MCF7 mammary malignancy = test: SRB antiproliferative assay; assay type: cell-based, human
Experimental: as §3

[11] = tested on: MDA-MB-231 invasive mammary malignancy; test: SRB antiproliferative assay; assay type: cell-based, human; conditions: read-out: Cytotoxicity (as of %control) IC50 value, MDA-MB-231 invasive mammary malignancy
Experimental: as §3

[12] = tested on: MDA-MB-453 invasive mammary malignancy; test: SRB antiproliferative assay; assay type: cell-based, human
Experimental: as §3

[13] = tested on: PANC1 pancreatic cell line; test: SRB antiproliferative assay; assay type: cell-based, human
Experimental: as §3

PC3 prostate malignancy = test: SRB antiproliferative assay; assay type: cell-based, human
Experimental: as §3

[14] = tested on: SW480 colorectal cancer cell line; test: SRB antiproliferative assay; assay type: cell-based, human; conditions: read-out: Cytotoxicity (as of %control) IC50 value, SW480
Experimental: as §3

T47D mammary malignancy = test: SRB antiproliferative assay; assay type: cell-based, human; conditions: read-out: Cytotoxicity (as of %control) IC50 value, T47D mammary malignancy
Experimental: as §3

[15] = 72 h incubations, 3.125-200µM range, mean ± SD n = 4

COc1ccc(/C=N/NC(=S)N/N=C/c2ccc(OC)cc2)cc1 [L2, 1,5-bis (4-methoxyanisaldehyde) thiocarbohydrazine]
MIC [1]: 31.3 µg/mL (≈ 91.4 µM)
MIC [2]: 15.6 µg/mL (≈ 45.6 µM)
MIC [3]: 31.3 µg/mL (≈ 91.4 µM)
IC50 [4]: 18.1 ± 2.04 µM
IC50 (RAW 264.7 macrophages): > 200 µM
IC50 ([5]; Fibroblast): > 200 µM
IC50 (A375 skin melanoma): > 200 µM
IC50 ([6]; Homo sapiens, Caco-2, 72 h, read-out: Cytotoxicity (as of %control) IC50 value, CACO2): > 200 µM
IC50 ([7]; Homo sapiens, HCT-116, 72 h, read-out: Cytotoxicity (as of %control) IC50 value, HCT116): > 200 µM
IC50 ([8]; Homo sapiens, HT-29, 72 h, read-out: Cytotoxicity (as of %control) IC50 value, HT29): > 200 µM
IC50 ([9]; Homo sapiens, SW-620, 72 h; read-out: Cytotoxicity (as of %control) IC50 value, SW620): 117 ± 3.81 µM
IC50 (U87 glioblastoma): > 200 µM
IC50 (A549 lung malignancy; Homo sapiens, A549, 72 h): 36.6 ± 0.2 µM
IC50 ([10]; Homo sapiens, BT-549, 72 h): 94.8 ± 4.17 µM
IC50 (Hela cervix malignancy; Homo sapiens, HeLa, 72 h, read-out: Cytotoxicity (as of %Control) IC50 value, Hela cervix malignancy): > 200 µM
IC50 (MCF7 mammary malignancy; Homo sapiens, MCF7, 72 h, read-out: Cytotoxicity (as of %control) IC50 value, MCF7 mammary malignancy): > 200 µM
IC50 ([11]; Homo sapiens, MDA-MB-231, 72 h): > 200 µM
IC50 ([12]; Homo sapiens, MDA-MB-453, 72 h, read-out: Cytotoxicity (as of %control) IC50 value, MDA-MB-453 invasive mammary malignancy): > 200 µM
IC50 ([13]; Homo sapiens, PANC-1, 72 h, read-out: Cytotoxicity (as of %control) IC50 value, PANC1): > 200 µM
IC50 (PC3 prostate malignancy; Homo sapiens, 72 h, read-out: Cytotoxicity (as of %Control) IC50 value, PC3 prostate malignancy): > 200 µM
IC50 ([14]; Homo sapiens, SW480, 72 h): 51.6 ± 3.07 µM
IC50 (T47D mammary malignancy; Homo sapiens, T47D, 72 h): > 200 µM

COc1ccccc1/C=N/NC(=S)N/N=C/c1ccccc1OC [L1, 1,5-bis(2-methoxyanisaldehyde) thiocarbohydrazine]
MIC [1]: 31.3 µg/mL (≈ 91.4 µM)
MIC [2]: 15.6 µg/mL (≈ 45.6 µM)
MIC [3]: 31.3 µg/mL (≈ 91.4 µM)
IC50 (RAW 264.7 macrophages): > 200 µM
IC50 ([5]; Fibroblast): > 200 µM
IC50 (A375 skin melanoma): 41.7 ± 0.7 µM
IC50 ([6]; Homo sapiens, Caco-2, 72 h; read-out: Cytotoxicity (as of %control) IC50 value, CACO2): 23.2 ± 0.6 µM
IC50 ([7]; Homo sapiens, HCT-116, 72 h; read-out: Cytotoxicity (as of %control) IC50 value, HCT116): 36.1 ± 1.9 µM
IC50 ([8]; Homo sapiens, HT-29, 72 h; read-out: Cytotoxicity (as of %control) IC50 value, HT29): 42.1 ± 5.7 µM
IC50 ([9]; Homo sapiens, SW-620, 72 h, read-out: Cytotoxicity (as of %control) IC50 value, SW620): < 3.12 µM
IC50 (U87 glioblastoma): 29.5 ± 0.2 µM
IC50 (A549 lung malignancy; Homo sapiens, A549, 72 h): 44.8 ± 1.8 µM
IC50 ([10]; Homo sapiens, BT-549, 72 h): 46.4 ± 1.11 µM
IC50 (Hela cervix malignancy; Homo sapiens, HeLa, 72 h; read-out: Cytotoxicity (as of %Control) IC50 value, Hela cervix malignancy): 44.8 ± 3.8 µM
IC50 (MCF7 mammary malignancy; Homo sapiens, MCF7, 72 h; read-out: Cytotoxicity (as of %control) IC50 value, MCF7 mammary malignancy): 52.4 ± 5.25 µM
IC50 ([11]; Homo sapiens, MDA-MB-231, 72 h): 29.2 ± 3.8 µM
IC50 ([12]; Homo sapiens, MDA-MB-453, 72 h; read-out: Cytotoxicity (as of %control) IC50 value, MDA-MB-453 invasive mammary malignancy): 72.9 ± 3.4 µM
IC50 ([13]; Homo sapiens, PANC-1, 72 h; read-out: Cytotoxicity (as of %control) IC50 value, PANC1): 66.8 ± 0.2 µM
IC50 (PC3 prostate malignancy; Homo sapiens, 72 h; read-out: Cytotoxicity (as of %Control) IC50 value, PC3 prostate malignancy): 145 ± 1.5 µM
IC50 ([14]; Homo sapiens, SW480, 72 h): 5.35 ± 0.25 µM
IC50 (T47D mammary malignancy; Homo sapiens, T47D, 72 h): 21.8 ± 1.2 µM

N.N.[Cl][Pt][Cl] [Cisplatin, reference compound]
IC50 ([5]; SRB, normal PDL fibroblasts, unit printed for cisplatin cell and footnote): 5.6 µM
IC50 (A549 lung malignancy; [15]): 71.9 ± 2.9 µM
IC50 [10, 15]: 3.77 ± 0.25 µM
IC50 (Hela cervix malignancy; 72 h incubations; 3.125-200µM range; mean ± SD n = 4; read-out: Cytotoxicity (as of %Control) IC50 value, Hela cervix malignancy): 27.3 ± 0.9 µM
IC50 (MCF7 mammary malignancy; 72 h incubations; 3.125-200µM range; mean ± SD n = 4; read-out: Cytotoxicity (as of %control) IC50 value, MCF7 mammary malignancy): 31.6 ± 0.44 µM
IC50 ([11]; 72 h incubations, 3.125-200 µM range, mean ± SD n = 4): 11.8 ± 1.4 µM
IC50 ([12]; 72 h incubations; 3.125-200µM range; mean ± SD n = 4; read-out: Cytotoxicity (as of %control) IC50 value, MDA-MB-453 invasive mammary malignancy): 9.8 ± 0.1 µM
IC50 ([13]; 72 h incubations; 3.125-200µM range; mean ± SD n = 4; read-out: Cytotoxicity (as of %control) IC50 value, PANC1): 41.5 ± 0.4 µM
IC50 (PC3 prostate malignancy; 72 h incubations; 3.125-200µM range; mean ± SD n = 4; read-out: Cytotoxicity (as of %Control) IC50 value, PC3 prostate malignancy): 12.5 ± 0.2 µM
IC50 [14, 15]: 8.92 ± 0.24 µM
IC50 (T47D mammary malignancy; [15]): 34.2 ± 0.5 µM
